In patent publication US7183267B2, “β-lactamase inhibitors and methods of use thereof” (priority 2003, dated 2007):
Like-named read-outs stand apart in the source and are kept apart here.

Experiments:
AmpC β-lactamase [1] = target: T1, AmpC β-lactamase (Escherichia coli, UniProt P00811); test: AmpC β-lactamase competitive inhibition assay (nitrocefin hydrolysis); format: biochemical
T1 construct: made in house; host or cells: E. coli BL21 (DE3)
Method: The gene for AmpC β-lactamase (accession number P00811) was obtained from Escherichia coli K12 strain W3110 (American Type Culture Collection, Rockville Md.). E. coli was grown and plasmid (F-lacIq lacPL8 ampC::lambdacI+) was isolated via Qiagen (Valencia, Calif.) mini prep. The gene for AmpC was amplified in two pieces via polymerase chain reaction, ligated and purified by agarose gel electrophoresis. The ligated gene was inserted into a pET200 vector via a TOPO reaction (Invitrogen, Carlsbad, Calif.).
BL21 (DE3) (Invitrogen) cells were transformed by heat-shock with the prepared plasmid. These cells were grown to an OD600 of 0.8 at 37° C. Isopropylthiogalactoside (IPTG) was added to 1 mM, incubation temperature decreased to 25° C. and the cells were grown for an additional 18 hours. After 18 hours, the E. coli was pelleted by centrifugation, and discarded. The growth media was concentrated and dialyzed versus 100 mM Tris, pH 7.0. This solution was run through an equilibrated Q-resin column, and washed with excess 100 mM Tris, pH 7.0.
(§1) The competitive inhibition of β-lactamase was determined spectrophotometrically using a Varian (Walnut Creek, Calif.) Cary 100 UV-Visible spectrophotometer. β-lactamase activity was followed by measuring the hydrolysis of nitrocefin, [3-(2,4-dinitrostyryl)-(6R, 7R)-7-(2-thienylacetamido)-ceph-3-em-4-carboxylic acid, E-isomer], (Calbiochem, San Diego, Calif.) at 486 nm. Inhibition assays were performed at 25° C. in 50 mM sodium phosphate, 5% DMSO, pH 7.0. […] Penicillin G (Sigma, St. Louis, Mo.) was also used as a substrate to determine KM and kcat.
(§2) Inhibitor was added to protein and incubated for ten minutes before the addition of substrate. Inhibition constants were determined by measuring the loss of P-lactamase activity with increasing inhibitor concentrations and fitting the data to standard equations for competitive inhibition.

AmpC β-lactamase [2] = target: T1, AmpC β-lactamase; conditions: binding to AmpC; ITC
Method: (§3) Isothermal titration calorimetry was performed on a high-precision VP-ITC titration calorimeter (Microcal Inc., Northampton, Mass.). β-Lactamase solutions were titrated with inhibitors in 50 mM sodium phosphate, 2% DMSO, pH 7.0, with β-lactamase concentrations ranging from 15 to 25 μM and inhibitor concentrations ranging from 300 to 1000 μM. The heat evolved from each injection was obtained by integrating the calorimetric signal. Heat of binding was obtained as the difference between the heat of reaction and the heat of inhibitor dilution. Data were analyzed using Origin 7.0 (OriginLab Corporation, Northampton, Mass.).
Isothermal titration calorimetry was undertaken to determine the thermodynamic characteristics of binding to AmpC β-lactamase.

TEM-1 β-lactamase [3] = target: T2, TEM-1 β-lactamase (Escherichia coli, UniProt P62593); test: Isothermal titration calorimetry, binding to TEM-1 β-lactamase (Example 17); conditions: ITC
Method: as §3
(§4) These methods can also be used to express and assay recombinant TEM-1 variant of β-lactamase.
Also shown are the results obtained for β-lactamase variant TEM-1.

TEM-1 β-lactamase [4] = target: T2, TEM-1 β-lactamase; test: TEM-1 β-lactamase inhibition assay (nitrocefin hydrolysis, 486 nm); format: biochemical
Method: (§5) The inhibition of TEM-1 β-lactamase was determined spectrophotometrically. B-lactamase activity was followed by measuring the hydrolysis of nitrocefin, [3-(2,4-dinitrostyryl)-(6R, 7R)-7-(2-thienylacetamido)-ceph-3-em-4-carboxylic acid, E-isomer], (Calbiochem, San Diego, Calif., USA) at 486 nm. Inhibition assays were performed at 25° C. in 50 mM sodium phosphate, 5% DMSO, pH 7.0. […] Inhibitor was added to the enzyme and incubated for ten minutes before the addition of substrate. Inhibition constants (Ki) for the inhibitors are obtained at the desired temperature and solvent conditions by measuring the rate of substrate hydrolysis at increasing amounts of inhibitors.
as §1, §2, §4

β-lactamase mutant R244S = β-lactamase mutant R244S (Escherichia coli, UniProt P62593, R241S); format: biochemical; conditions: number higher than 1 reflects a loss of potency against mutant
Method: as §5
(§6) Three of the most important mutations are M69I, R244S and E104K.

β-lactamase mutant E104K = β-lactamase mutant E104K (Escherichia coli, UniProt P62593, E102K); format: biochemical; conditions: number higher than 1 reflects a loss of potency against mutant
Method: as §5, §6

β-lactamase mutant M69I = β-lactamase mutant M69I (Escherichia coli, UniProt P62593, M67I); format: biochemical; conditions: number higher than 1 reflects a loss of potency against mutant
Method: as §5, §6

[5] = Ki, 25° C., 50 mM sodium phosphate, 5% DMSO, pH 7.0, enzyme 5 nM, nitrocefin 167 μM

SMILES | Ki (AmpC β-lactamase [1]) | ΔG (AmpC β-lactamase [2]) | ΔH (AmpC β-lactamase [2]) | −TΔS (AmpC β-lactamase [2]) | ΔG (TEM-1 β-lactamase [3]) | ΔH (TEM-1 β-lactamase [3]) | −TΔS (TEM-1 β-lactamase [3]) | Ki (TEM-1 β-lactamase [4]; [5]) | Ki (TEM-1 β-lactamase [4]; Ki, TEM-1 β-lactamase) | Loss of potency: ratio of the inhibitory constant between mutant and wild type (Potencywt/Potencymutant), R244S (β-lactamase mutant R244S) | Loss of potency: ratio of the inhibitory constant between mutant and wild type (Potencywt/Potencymutant), E104K (β-lactamase mutant E104K) | Loss of potency: ratio of the inhibitory constant between mutant and wild type (Potencywt/Potencymutant), M69I (β-lactamase mutant M69I) | Ki (TEM-1 β-lactamase [4])
O=C(Oc1ccc(OC(=O)c2cc(B(O)O)cc([N+](=O)[O-])c2)c(Cl)c1)c1cc(B(O)O)cc([N+](=O)[O-])c1 [Compound (2b), 3-Borono-5-nitrobenzoic acid 2-chloro-1,4-phenylene ester] | 2.92 µM | -7.736 kcal/mol | -0.225 kcal/mol | -7.511 kcal/mol | -7.864 kcal/mol | -0.52 kcal/mol | -7.344 kcal/mol | 15.2 ± 1.4 µM | 15.2 µM | – | – | – | –
O=C(OCc1ccccc1COC(=O)c1cc(B(O)O)cc([N+](=O)[O-])c1)c1cc(B(O)O)cc([N+](=O)[O-])c1 [Compound (10a), 3-Borono-5-nitrobenzoic acid 1,2-benzenedimethanol ester] | 0.457 µM | -8.59 kcal/mol | -4.149 kcal/mol | -4.441 kcal/mol | -7.183 kcal/mol | -0.982 kcal/mol | -6.201 kcal/mol | – | 9.7 µM | – | – | – | –
CC(C)(C)c1cc(OC(=O)c2cc(B(O)O)cc([N+](=O)[O-])c2)ccc1OC(=O)c1cc(B(O)O)cc([N+](=O)[O-])c1 [Compound (2d)] | 6.27 µM | -7.098 kcal/mol | 0 kcal/mol | -7.098 kcal/mol | -6.513 kcal/mol | -0.859 kcal/mol | -5.654 kcal/mol | – | 10.9 µM | – | – | – | –
CCOC(=O)c1ccccc1OC(=O)c1cc(B(O)O)cc([N+](=O)[O-])c1 [Compound (1i), 3-(2-Ethoxycarbonyl-phenoxycarbonyl)-5-nitrophenylboronic acid] | – | – | – | – | – | – | – | 101 ± 4 µM | – | 0.34 | 0.36 | 0.50 | –
CC1(C)[C@H](C(=O)O)N2C(=O)C[C@H]2S1(=O)=O [Sulbactam, sulbactam, reference compound] | – | – | – | – | – | – | – | – | – | 93 | 1 | 15 | –
O=C(O)[C@H]1/C(=C/CO)O[C@@H]2CC(=O)N21 [Clavulanic, clavulanic acid, reference compound] | – | – | – | – | – | – | – | – | – | 38 | 0.67 | 163 | –
O=C(Oc1cc(OC(=O)c2cc(B(O)O)cc([N+](=O)[O-])c2)cc(OC(=O)c2cc(B(O)O)cc([N+](=O)[O-])c2)c1)c1cc(B(O)O)cc([N+](=O)[O-])c1 [Compound (12a), Tris(3-borono-5-nitrobenzoic acid), 1,3,5-trihydroxybenzene ester] | 1.94 µM | -7.231 kcal/mol | -1.47 kcal/mol | -5.761 kcal/mol | -6.468 kcal/mol | -0.69 kcal/mol | -5.778 kcal/mol | – | – | – | – | – | 6.9 µM
O=C(Oc1cccc(B(O)O)c1)c1cc(B(O)O)cc([N+](=O)[O-])c1 [Compound (1v), 3-(3-Boronophenoxycarbonyl)-5-nitrophenylboronic acid] | 5.01 µM | -7.221 kcal/mol | -10.412 kcal/mol | 3.191 kcal/mol | – | – | – | 32 ± 1.1 µM | – | – | – | – | –
C[C@]1(Cn2ccnn2)[C@H](C(=O)O)N2C(=O)C[C@H]2S1(=O)=O [Tazobactam, tazobactam, reference compound] | – | – | – | – | – | – | – | – | – | 105 | 1 | 31 | –
O=C(Oc1c(Cl)cccc1[N+](=O)[O-])c1ccc(B(O)O)cc1F [(8a), 4-(2-Chloro-6-nitrophenoxycarbonyl)-3-fluorophenylboronic acid] | 0.913 µM | -8.19 kcal/mol | -8.486 kcal/mol | 0.296 kcal/mol | – | – | – | 43 ± 1.6 µM | – | – | – | – | –
O=C(Oc1ccc(OC(=O)c2ccc(B(O)O)cc2F)c(Cl)c1)c1ccc(B(O)O)cc1F [Compound (7a), 4-Borono-2-fluorobenzoic acid 2-chloro-1,4-phenylene ester] | 0.873 µM | -7.314 kcal/mol | -9.936 kcal/mol | 2.622 kcal/mol | – | – | – | 122 ± 10 µM | – | – | – | – | –
O=C(Oc1ccc2sc(=O)oc2c1)c1cc(B(O)O)cc([N+](=O)[O-])c1 [Compound (1f), 3-(2-OxO-benzo[1,3]oxathiol-6-oxycarbonyl)-5-nitrophenylboronic acid] | – | – | – | – | – | – | – | 33 ± 4 µM | – | 0.42 | 0.37 | 0.47 | –
O=C(Oc1c(Cl)c(Cl)c(OC(=O)c2cc(B(O)O)cc([N+](=O)[O-])c2)c(Cl)c1Cl)c1cc(B(O)O)cc([N+](=O)[O-])c1 [Compound (2c)] | 3.68 µM | -7.115 kcal/mol | -0.473 kcal/mol | -6.642 kcal/mol | -5.814 kcal/mol | -1.648 kcal/mol | -4.166 kcal/mol | – | 6.7 µM | – | – | – | –
O=C(Oc1cccc(B(O)O)c1)c1c(Cl)cccc1Cl [Compound (6a), 3-(2,6-Dichlorophenylcarbonyloxy)phenyl boronic acid] | 1.53 µM | -7.757 kcal/mol | -6.538 kcal/mol | -1.219 kcal/mol | – | – | – | 28 ± 2.1 µM | – | – | – | – | –
